{"source": "paper PMC6277198", "about": "“Molecular basis for activation of lecithin:cholesterol acyltransferase by a compound that increases HDL cholesterol” (eLife, 2018)", "test_in_all_cases": "MUP hydrolysis (esterase) assay", "assay_type_in_all_cases": "biochemical", "key": {"[1]": {"molecular_target": "T1, LCAT Y51S/G71I (Homo sapiens, UniProt P04180, G95I/Y75S)", "T1 construct": "hydrolysis of 4-methylumbelliferyl palmitate (MUP) by full-length LCAT; made in house; host or cells: HEK293F (transient transfection, secreted)", "T1 sequence (P04180 25-440 Y75S/G95I)": "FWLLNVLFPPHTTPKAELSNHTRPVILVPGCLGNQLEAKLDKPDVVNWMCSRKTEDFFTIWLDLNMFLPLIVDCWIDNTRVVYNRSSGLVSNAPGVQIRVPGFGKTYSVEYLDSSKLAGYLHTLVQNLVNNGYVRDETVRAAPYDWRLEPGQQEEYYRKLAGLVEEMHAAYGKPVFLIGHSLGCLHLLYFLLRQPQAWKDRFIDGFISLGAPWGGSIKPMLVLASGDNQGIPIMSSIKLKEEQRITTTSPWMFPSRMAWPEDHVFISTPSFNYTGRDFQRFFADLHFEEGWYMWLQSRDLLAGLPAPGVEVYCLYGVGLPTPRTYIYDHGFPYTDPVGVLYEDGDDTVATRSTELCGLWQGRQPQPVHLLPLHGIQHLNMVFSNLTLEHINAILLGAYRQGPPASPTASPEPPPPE", "conditions": "compound titrated from 0.04 to 9.5 μM", "experimental": "(§1) The lipase activity of LCAT was measured using MUP as a substrate. The assay was performed at room temperature in 0.1 M sodium phosphate buffer, pH 7.4 containing 0.01% Triton X-100. 4 μL of LCAT (6 nM final concentration) were dispensed into a 1536-well Greiner solid black plate. The same volume of assay buffer was dispensed into column 1 and 2 for a no-enzyme control. […] After 15 min incubation, 2 μL MUP (16 μM final concentration) was added to initiate the reaction. The hydrolysis of MUP was monitored using a ViewLux plate reader (excitation 380 nm/emission 450 nm) for 20 min. The fluorescence signal was normalized against no-activator and no-enzyme control after subtraction of background signal (t = 0 min). To plot percent activation, in each assay 100% was set at the rate of LCAT or LCAT variant without compound. The resulting data were fitted to a sigmoidal dose response curve."}, "[2]": {"molecular_target": "T2, LCAT G71I (Homo sapiens, UniProt P04180, G95I)", "T2 construct": "hydrolysis of 4-methylumbelliferyl palmitate (MUP) by full-length LCAT; made in house; host or cells: HEK293F (transient transfection, secreted)", "T2 sequence (P04180 25-440 G95I)": "T1 sequence (P04180 25-440 Y75S/G95I) with S51Y", "conditions": "compound titrated from 0.04 to 9.5 μM", "experimental": "as §1"}, "[3]": {"molecular_target": "T3, LCAT Y51S (Homo sapiens, UniProt P04180, Y75S)", "T3 construct": "hydrolysis of 4-methylumbelliferyl palmitate (MUP) by full-length LCAT; made in house; host or cells: HEK293F (transient transfection, secreted)", "T3 sequence (P04180 25-440 Y75S)": "T1 sequence (P04180 25-440 Y75S/G95I) with I71G", "experimental": "as §1"}, "[4]": {"molecular_target": "T4, WT LCAT (Homo sapiens, UniProt P04180)", "T4 sequence (P04180 25-440)": "T1 sequence (P04180 25-440 Y75S/G95I) with S51Y, I71G", "design": "hydrolysis of 4-methylumbelliferyl palmitate (MUP) by full-length LCAT; made in house; host or cells: HEK293F (transient transfection, secreted)", "experimental": "as §1"}, "[5]": {"conditions": "Y51S, compound titrated from 0.04 to 9.5 μM"}, "[6]": {"conditions": "WT, compound titrated from 0.04 to 9.5 μM, read-out: MUP assay EC50"}, "[7]": {"conditions": "WT, compound titrated from 0.04 to 9.5 μM"}}, "note": "Positions count from the first letter of the chain named. Values joined by “and” are separate entries in the source; they are usually repeats but may differ in a detail not shown here. Equal values may be shown once. “Also recorded” adds a separate entry of the source. Read-outs that look alike come from different tables or passages of the source.", "data": [{"smiles": "N#Cc1cnc(N2CCC(c3n[nH]c4c3C(O)(C(F)(F)F)CC(=O)N4)CC2)cc1C(F)(F)F", "note": "(centres unmarked) [compound 1, 6-(4-(4-Hydroxy-6-oxo-4-(trifluoromethyl)−4,5,6,7-tetrahydro-1H-pyrazolo[3,4-b]pyridin-3-yl)piperidin-1-yl)−4-(trifluoromethyl)nicotinonitrile]", "values": [{"measurement": "Fold activation, MUP esterase assay", "setting": "[1]", "value": "1.3 ± 0.3", "unit": "fold"}, {"measurement": "MUP assay EC50", "setting": "[1]", "value": "no response; also recorded: no effect"}, {"measurement": "EC50", "setting": "[2]", "value": "> 5000", "unit": "nM"}, {"measurement": "Fold activation, MUP esterase assay", "setting": "[2]", "value": "1.5 ± 0.4", "unit": "fold"}, {"measurement": "EC50", "setting": "[3]; [5]", "value": "590 ± 30", "unit": "nM"}, {"measurement": "Fold activation, MUP esterase assay", "setting": "[3]; [5]", "value": "1.9 ± 0.2", "unit": "fold"}, {"measurement": "MUP EC50 of Y51S relative to WT", "setting": "[3]; fold higher than WT", "value": 4, "unit": "fold"}, {"measurement": "EC50", "setting": "[4]; [6]", "value": "160 ± 10", "unit": "nM"}, {"measurement": "EC50", "setting": "[4]; full-length WT LCAT, read-out: EC50, MUP hydrolysis", "value": "~150", "unit": "nM"}]}, {"smiles": "O=C1CC(O)(C(F)(F)F)c2c(C3CCN(c4cnc(C(F)(F)F)cn4)CC3)n[nH]c2N1", "note": "(centres unmarked) [compound 2, 4-Hydroxy-4-(trifluoromethyl)−3-(1-(5-(trifluoromethyl)pyrazin-2-yl)piperidin-4-yl)−4,5-dihydro-1H-pyrazolo[3,4-b]pyridin-6(7H)-one]", "values": [{"measurement": "Fold activation, MUP esterase assay", "setting": "[1]", "value": "0.99 ± 0.03", "unit": "fold"}, {"measurement": "MUP assay EC50", "setting": "[1]", "value": "no effect"}, {"measurement": "EC50", "setting": "[2]", "value": "> 5000", "unit": "nM"}, {"measurement": "Fold activation, MUP esterase assay", "setting": "[2]", "value": "1.7 ± 0.2", "unit": "fold"}, {"measurement": "EC50", "setting": "[3]; [5]", "value": "740 ± 200", "unit": "nM"}, {"measurement": "Fold activation, MUP esterase assay", "setting": "[3]; [5]", "value": "1.8 ± 0.1", "unit": "fold"}, {"measurement": "EC50", "setting": "[4]; [6]", "value": "280 ± 40", "unit": "nM"}]}, {"smiles": "O=C1CC(O)(C(F)(F)F)c2c(ncn2C2CCN(c3cnc(C(F)(F)F)cn3)CC2)N1", "note": "(centres unmarked) [compound 3, 7-Hydroxy-7-(trifluoromethyl)−1-(1-(5-(trifluoromethyl)pyrazin-2-yl)piperidin-4-yl)−6,7-dihydro-1H-imidazo[4,5-b]pyridin-5(4H)-one]", "values": [{"measurement": "Fold activation, MUP esterase assay", "setting": "[1]", "value": "1.1 ± 0.06", "unit": "fold"}, {"measurement": "MUP assay EC50", "setting": "[1]", "value": "no effect"}, {"measurement": "EC50", "setting": "[2]", "value": "> 5000", "unit": "nM"}, {"measurement": "Fold activation, MUP esterase assay", "setting": "[2]", "value": "1.5 ± 0.2", "unit": "fold"}, {"measurement": "EC50", "setting": "[3]; [5]", "value": "1600 ± 400", "unit": "nM"}, {"measurement": "Fold activation, MUP esterase assay", "setting": "[3]; [5]", "value": "1.9 ± 0.2", "unit": "fold"}, {"measurement": "EC50", "setting": "[4]; [6]", "value": "320 ± 50", "unit": "nM"}]}, {"smiles": "O=C1CC(O)(C(F)(F)F)c2c(ncn2C2CCNCC2)N1", "note": "(centres unmarked) [compound 6, 7-Hydroxy-1-(piperidin-4-yl)−7-(trifluoromethyl)−6,7-dihydro-1H-imidazo[4,5-b]pyridin-5(4H)-one]", "values": [{"measurement": "Fold activation, MUP esterase assay", "setting": "[1]", "value": "no effect"}, {"measurement": "MUP assay EC50", "setting": "[1]", "value": "no effect"}, {"measurement": "Fold activation, MUP esterase assay", "setting": "[2]", "value": "no effect"}, {"measurement": "MUP assay EC50", "setting": "[2]", "value": "no effect"}, {"measurement": "Fold activation, MUP esterase assay", "setting": "[3]; [5]", "value": "no effect"}, {"measurement": "MUP assay EC50", "setting": "[3]; [5]", "value": "no effect"}, {"measurement": "Fold activation, MUP esterase assay", "setting": "[4]; [7]", "value": "no activating effect"}, {"measurement": "MUP assay EC50", "setting": "[4]; [7]", "value": "no effect"}]}, {"smiles": "O=c1cc(C(F)(F)F)c2c(ncn2C2CCN(c3cnc(C(F)(F)F)cn3)CC2)[nH]1", "note": "[compound 8, 7-(trifluoromethyl)−1-(1-(5-(trifluoromethyl)pyrazin-2-yl)piperidin-4-yl)−1H-imidazo[4,5-b]pyridin-5(4H)-one]", "values": [{"measurement": "EC50", "setting": "[1]", "value": "> 10000", "unit": "nM"}, {"measurement": "Fold activation, MUP esterase assay", "setting": "[1]", "value": "1.1 ± 0.07", "unit": "fold"}, {"measurement": "EC50", "setting": "[2]", "value": "> 10000", "unit": "nM"}, {"measurement": "Fold activation, MUP esterase assay", "setting": "[2]", "value": "1.2 ± 0.1", "unit": "fold"}, {"measurement": "EC50", "setting": "[3]; [5]", "value": "> 10000", "unit": "nM"}, {"measurement": "Fold activation, MUP esterase assay", "setting": "[3]; [5]", "value": "2.8 ± 0.6", "unit": "fold"}, {"measurement": "Fold activation, MUP esterase assay", "setting": "[4]; [7]", "value": "3.7 fold and 3.7 ± 0.9 fold"}, {"measurement": "EC50", "setting": "[4]; [6]", "value": "4600 ± 60", "unit": "nM"}]}, {"smiles": "O=C1CC(O)(C(F)(F)F)c2c(C3CCN(c4cnc(C(F)(F)F)cn4)CC3)noc2N1", "note": "(centres unmarked) [compound 9, 4-hydroxy-4-(trifluoromethyl)−3-(1-(5-(trifluoromethyl)pyrazin-2-yl)piperidin-4-yl)−4,5-dihydroisoxazolo[5,4-b]pyridin-6(7H)-one]", "values": [{"measurement": "Fold activation, MUP esterase assay", "setting": "[1]", "value": "0.97 ± 0.003", "unit": "fold"}, {"measurement": "MUP assay EC50", "setting": "[1]", "value": "no effect"}, {"measurement": "Fold activation, MUP esterase assay", "setting": "[2]", "value": "0.96 ± 0.01", "unit": "fold"}, {"measurement": "MUP assay EC50", "setting": "[2]", "value": "no effect"}, {"measurement": "EC50", "setting": "[3]; [5]", "value": "> 10000", "unit": "nM"}, {"measurement": "Fold activation, MUP esterase assay", "setting": "[3]; [5]", "value": "1.1 ± 0.07", "unit": "fold"}, {"measurement": "Fold activation, MUP esterase assay", "setting": "[4]; [7]", "value": "1.6 fold and 1.6 ± 0.2 fold"}, {"measurement": "EC50", "setting": "[4]; [6]", "value": "7700 ± 2000", "unit": "nM"}]}]}
